pIC50: −log10 of the molar value.
What was measured:
Type in all cases: biochemical
[1] = molecular target: T1, human FLT3 (Homo sapiens, UniProt P36888); assay: FLT3 kinase assay (DELFIA enzyme inhibition)
T1 construct: a construct expressing the human FLT3 (564-993) with an amino terminal GST tag; host or cells: Sf9 insect cells (baculovirus)
T1 sequence (P36888 564-993): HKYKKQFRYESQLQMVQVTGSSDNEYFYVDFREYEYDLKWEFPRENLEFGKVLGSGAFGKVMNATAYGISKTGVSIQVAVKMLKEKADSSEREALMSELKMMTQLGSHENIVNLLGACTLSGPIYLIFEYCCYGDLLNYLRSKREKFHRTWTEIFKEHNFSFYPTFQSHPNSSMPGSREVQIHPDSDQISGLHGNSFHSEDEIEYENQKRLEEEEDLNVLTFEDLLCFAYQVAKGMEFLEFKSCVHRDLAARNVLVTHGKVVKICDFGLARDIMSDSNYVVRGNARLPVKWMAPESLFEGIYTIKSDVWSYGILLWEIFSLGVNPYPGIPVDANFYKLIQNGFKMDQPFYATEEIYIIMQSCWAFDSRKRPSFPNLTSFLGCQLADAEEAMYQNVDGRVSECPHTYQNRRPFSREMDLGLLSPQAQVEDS
Method: A GST-kinase fusion protein of 70 KDa was produced using sf9 baculovirus expression system, with a construct expressing the human FLT3 (564-993) with an amino terminal GST tag. The protein was purified by one-step affinity chromatography using glutathione-agarose.
FLT3 enzyme activity is determined using a Dissociation Enhanced Lanthanide Fluorescent Immunoassay (DELFIA) with a peptide substrate derived from the Gastrin Precursor (Tyr 87) peptide […] with a core sequence: EAYGW.
The amount of phosphorylated peptide produced is detected by means of a phospho-Tyrosine specific Europium-labelled antibody using Time-Resolved Fluorescence at Excitation 360-35 nm and Emission 620-35 nm.
Assay reactions are set up in a 25 uL final volume on a 96 well plate. […] The reaction is allowed to proceed for 30 minutes at room temperature before stopping with 100 μL Stop solution comprising of 100 mM EDTA, 1×BSA blocker in TBS (Perbio) and 0.05% Surfact-Amps20 (Perbio).
The stopped reaction is transferred to a black 96-well Neutravidin-coated plate (Perbio) and incubated for 30 minutes to capture the biotinylated peptide substrate. After washing wells 3 times with 200 uL TBS/T buffer, Anti-Phospho-Tyr-100 antibody labelled with Eu—N1 (Perkin Elmer AD0159) is added to all wells for 60 minutes at room temperature. After a repeat washing step, DELFIA Enhancement solution (Perkin Elmer) is added to all wells for 5 minutes and the fluorescence measured on a plate reader Analyst HT (Molecular Devices).
The % inhibition of the activity is calculated and plotted in order to determine the concentration of test compound required to inhibit 50% of the enzyme activity (IC50).

[2] = molecular target: T2, human FLT4 (Homo sapiens, UniProt P35916); assay: FLT4 kinase assay (DELFIA enzyme inhibition); details: read-out: FLT4 IC50
T2 construct: a construct expressing the human FLT4 (789-1207) with an amino terminal GST tag; host or cells: Sf9 insect cells (baculovirus)
T2 sequence (P35916 789-1207): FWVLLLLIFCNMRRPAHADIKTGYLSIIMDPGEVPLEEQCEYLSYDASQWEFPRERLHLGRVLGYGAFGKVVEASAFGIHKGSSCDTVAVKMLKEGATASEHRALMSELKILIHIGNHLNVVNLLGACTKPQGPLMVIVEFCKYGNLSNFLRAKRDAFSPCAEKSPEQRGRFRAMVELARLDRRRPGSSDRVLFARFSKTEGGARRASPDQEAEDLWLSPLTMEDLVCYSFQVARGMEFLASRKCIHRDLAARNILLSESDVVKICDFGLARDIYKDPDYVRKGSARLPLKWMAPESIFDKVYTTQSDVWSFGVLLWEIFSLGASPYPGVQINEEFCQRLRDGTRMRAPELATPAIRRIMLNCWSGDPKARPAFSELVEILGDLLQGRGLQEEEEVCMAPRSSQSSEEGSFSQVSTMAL
Outline: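 Read-out is DELFIA: biotinylated MET Tyr1253-derived peptide captured on Neutravidin, phosphotyrosine detected by Eu-antibody time-resolved fluorescence. Enzyme is Sf9-expressed GST-FLT4 (789-1207), reacting 30 min at room temperature before EDTA stop. IC50 derived from plotted % inhibition.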

[3] = molecular target: T3, human Aurora A (Homo sapiens, UniProt O14965); assay: Aurora A kinase assay (DELFIA enzyme inhibition); details: read-out: Aurora A IC50
T3 construct: Histidine tag (N); host or cells: Sf9 insect cells (baculovirus)
T3 sequence (O14965 1-403): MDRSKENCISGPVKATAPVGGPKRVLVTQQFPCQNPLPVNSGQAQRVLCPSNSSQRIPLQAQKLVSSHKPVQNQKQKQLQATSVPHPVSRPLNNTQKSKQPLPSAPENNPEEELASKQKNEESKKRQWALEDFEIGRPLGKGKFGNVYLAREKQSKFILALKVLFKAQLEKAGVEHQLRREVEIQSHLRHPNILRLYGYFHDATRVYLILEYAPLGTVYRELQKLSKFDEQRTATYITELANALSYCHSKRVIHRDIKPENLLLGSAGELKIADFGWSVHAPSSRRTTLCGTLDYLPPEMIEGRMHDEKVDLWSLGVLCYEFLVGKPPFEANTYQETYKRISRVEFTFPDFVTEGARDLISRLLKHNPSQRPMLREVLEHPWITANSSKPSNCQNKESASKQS
Outline: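 DELFIA read-out (time-resolved Eu fluorescence, 620 nm emission) after Neutravidin capture of biotinylated peptide substrate and antibody detection. Reaction: Ni-agarose-purified Aurora A, 30 min at room temperature, stopped with 100 mM EDTA.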

## NC(=O)c1nc(-c2c(F)cccc2F)oc1-c1ccc(N2CCOCC2)nc1 [Example F-19, 2-(2,6-difluorophenyl)-5-(6-morpholinopyridin-3-yl)oxazole-4-carboxamide]
[1]
  pIC50: > 4.00
[2]
  pIC50: > 4.00

## CN1CCN(CCOc2ccc(-c3oc(-c4c(F)cccc4N4CCN(C)CC4)nc3C(N)=O)cc2)CC1 [Example S-2, 2-(2-fluoro-6-(4-methylpiperazin-1-yl)phenyl)-5-(4-(2-(4-methylpiperazin-1-yl)ethoxy)phenyl)oxazole-4-carboxamide]
[1]
  pIC50: > 4.00
[3]
  pIC50: > 4.00

## NC(=O)c1nc(-c2c(F)cccc2F)oc1Nc1ccc(C(=O)NC2CCNCC2)cc1 [Example U-21, 2-(2,6-difluorophenyl)-5-(4-(piperidin-4-ylcarbamoyl)phenylamino)oxazole-4-carboxamide]
[1]
  pIC50: > 5.00
[3]
  pIC50: > 5.00
[2]
  pIC50: > 5.00

## COc1ccc(-c2oc(-c3ccccc3)nc2C(N)=O)cc1 [Example M-2, 5-(4-methoxyphenyl)-2-phenyloxazole-4-carboxamide]
[1]
  pIC50: > 4.00
[2]
  pIC50: > 5.00

## CN1CCN(c2ccc(-c3oc(-c4c(F)cccc4F)nc3C(N)=O)cc2)CC1 [Example H-1, 2-(2,6-difluorophenyl)-5-(4-(4-methylpiperazin-1-yl)phenyl)oxazole-4-carboxamide]
[1]
  pIC50: > 5.00
[3]
  pIC50: > 5.00
[2]
  pIC50: > 5.00

## CN1CCN(C(=O)Nc2ccc(Nc3oc(-c4c(F)cccc4F)nc3C(N)=O)cc2)CC1 [Example V-2, N-(4-(4-carbamoyl-2-(2,6-difluorophenyl)oxazol-5-ylamino)phenyl)-4-methyl piperazine-1-carboxamide]
[1]
  pIC50: > 5.00
[3]
  pIC50: > 5.00
[2]
  pIC50: > 5.00

## CN(CCOc1ccc(-c2oc(-c3c(F)cccc3F)nc2C(N)=O)cc1)Cc1ccccc1 [Example S-11, 5-(4-(2-(benzyl(methyl)amino)ethoxy)phenyl)-2-(2,6-difluorophenyl)oxazole-4-carboxamide]
[1]
  pIC50: > 5.00
[3]
  pIC50: > 4.00
[2]
  pIC50: > 5.00

## NC(=O)c1nc(-c2c(F)cccc2F)oc1Nc1ccc(C(=O)N2CCCCC2)cc1 [Example Q-21, 2-(2,6-difluorophenyl)-5-(4-(piperidine-1-carbonyl)phenylamino)oxazole-4-carboxamide]
[1]
  pIC50: > 5.00
[3]
  pIC50: > 5.00
[2]
  pIC50: > 5.00

## COc1ccc(-c2oc(-c3cccc(NC(C)=O)c3)nc2C(N)=O)cc1 [Example N-3, 2-(3-acetamidophenyl)-5-(4-methoxyphenyl)oxazole-4-carboxamide]
[1]
  pIC50: > 4.00
[2]
  pIC50: > 5.00

## NC(=O)c1nc(-c2c(F)cccc2F)oc1Nc1cccc(N2CCOCC2)c1 [Example Q-2, 2-(2,6-difluorophenyl)-5-(3-morpholinophenylamino)oxazole-4-carboxamide]
[1]
  pIC50: > 5.00
[3]
  pIC50: > 5.00
[2]
  pIC50: > 5.00

## CN1CCN(CC(O)COc2ccc(-c3oc(-c4c(F)cccc4F)nc3C(N)=O)cc2)CC1 (centres unmarked) [Example T-3, 2-(2,6-difluorophenyl)-5-(4-(2-hydroxy-3-(4-methylpiperazin-1-yl)propoxy)phenyl)oxazole-4-carboxamide]
[1]
  pIC50: > 5.00
[3]
  pIC50: > 5.00
[2]
  pIC50: > 5.00

## NC(=O)c1nc(-c2ccccc2F)oc1-c1ccc(OCCN2CCOCC2)cc1 [Example F-27, 2-(2-fluorophenyl)-5-(4-(2-morpholinoethoxy)phenyl)oxazole-4-carboxamide]
[1]
  pIC50: > 5.00
[3]
  pIC50: > 5.00
[2]
  pIC50: > 5.00

## NC(=O)c1nc(-c2c(F)cccc2N2CCC(O)CC2)oc1-c1ccc(OCCN2CCC(O)CC2)cc1 [Example S-3, 2-(2-fluoro-6-(4-hydroxypiperidin-1-yl)phenyl)-5-(4-(2-(4-hydroxypiperidin-1-yl)ethoxy)phenyl)oxazole-4-carboxamide]
[1]
  pIC50: > 4.00
[3]
  pIC50: > 4.00
[2]
  pIC50: > 4.00

## NC(=O)c1nc(-c2c(F)cccc2F)oc1Nc1ccc(C(=O)N2CCC[C@H]2CO)cc1 [Example U-13, (S)-2-(2,6-difluorophenyl)-5-(4-(2-(hydroxymethyl)pyrrolidine-1-carbonyl)phenylamino)oxazole-4-carboxamide]
[1]
  pIC50: > 5.00
[3]
  pIC50: > 5.00
[2]
  pIC50: > 5.00

## NC(=O)c1nc(-c2c(F)cccc2F)oc1Nc1cccc(OCCN2CCOCC2)c1 [Example Q-10, 2-(2,6-difluorophenyl)-5-(3-(2-morpholinoethoxy)phenylamino)oxazole-4-carboxamide]
[1]
  pIC50: > 5.00
[3]
  pIC50: > 5.00
[2]
  pIC50: > 5.00

## CN1CCN(C(=O)c2ccc(Nc3oc(-c4c(F)cccc4F)nc3C(N)=O)cc2)[C@H](CO)C1 [Example U-27, (S)-2-(2,6-difluorophenyl)-5-(4-(3-(hydroxymethyl)-1-methylpiperazine-4-carbonyl)phenylamino)oxazole-4-carboxamide]
[1]
  pIC50: > 5.00
[3]
  pIC50: > 5.00
[2]
  pIC50: > 5.00

## NC(=O)c1nc(-c2c(F)cccc2F)oc1-c1ccc(OCCN2CCN(CCO)CC2)cc1 [Example S-7, 2-(2,6-difluorophenyl)-5-(4-(2-(4-(2-hydroxyethyl)piperazin-1-yl)ethoxy)phenyl)oxazole-4-carboxamide]
[1]
  pIC50: > 5.00
[3]
  pIC50: > 5.00
[2]
  pIC50: > 5.00

## CN(C)c1ccc(-c2oc(-c3c(F)cccc3F)nc2C(N)=O)cn1 [Example F-7, 2-(2,6-difluorophenyl)-5-(6-(dimethylamino)pyridin-3-yl)oxazole-4-carboxamide]
[1]
  pIC50: > 4.00
[2]
  pIC50: > 5.00

## NC(=O)c1nc(-c2c(F)cccc2F)oc1-c1ccccn1 [Example F-2, 2-(2,6-difluorophenyl)-5-(pyridin-2-yl)oxazole-4-carboxamide]
[1]
  pIC50: > 4.00
[2]
  pIC50: > 4.00

## COc1ccc(-c2oc(-c3ccc(C#N)cc3)nc2C(N)=O)cc1 [Example M-9, 2-(4-cyanophenyl)-5-(4-methoxyphenyl)oxazole-4-carboxamide]
[1]
  pIC50: > 4.00
[2]
  pIC50: > 4.00

## COc1ccc(-c2oc(-c3ccc(S(C)(=O)=O)cc3)nc2C(N)=O)cc1 [Example M-11, 5-(4-methoxyphenyl)-2-(4-(methylsulfonyl)phenyl)oxazole-4-carboxamide]
[1]
  pIC50: > 4.00

## COc1ccc(Nc2oc(-c3c(F)cccc3F)nc2C(N)=O)cc1 [Example P-1, 2-(2,6-difluorophenyl)-5-(4-methoxyphenylamino)oxazole-4-carboxamide]
[1]
  pIC50: > 5.00
[2]
  pIC50: > 5.00

## COc1ccc(-c2oc(-c3cccc(C(F)(F)F)c3)nc2C(N)=O)cc1 [Example N-8, 5-(4-methoxyphenyl)-2-(3-(trifluoromethyl)phenyl)oxazole-4-carboxamide]
[1]
  pIC50: > 4.00
[3]
  pIC50: > 4.00

## NC(=O)c1nc(-c2c(F)cccc2F)oc1Nc1ccc(N2CCOCC2)cc1 [Example Q-1, 2-(2,6-difluorophenyl)-5-(4-morpholinophenylamino)oxazole-4-carboxamide]
[1]
  pIC50: > 5.00
[3]
  pIC50: > 5.00

## COc1ccc(-c2oc(Nc3cccc(OC)c3)nc2C(N)=O)cc1 [Example R-3, 5-(4-methoxyphenyl)-2-(3-methoxyphenylamino)oxazole-4-carboxamide]
[1]
  pIC50: > 5.00
[3]
  pIC50: > 4.00

Source: patent US9187465B2, “Oxazole tyrosine kinase inhibitors” (Sareum Limited, priority 2007, dated 2015)
